Converted amounts (≈) assume the structure as drawn. Read-outs that look alike come from different tables or passages of the source.
What was measured:
[1] = system: Candida albicans ATCC 10231; experiment: Serial dilution microplate MIC (fungi); format: cell-based; settings: for MIC: Candida albicans; for Selectivity index C. albicans: in brackets, Vero LC50 vs MIC
Experimental: (§1) The MIC value of the plant extracts and isolated compounds against one fungal and five bacterial strains (Salmonella Typhimurium ATCC 39183, Escherichia coli ATCC 25922, Pseudomonas aeruginosa ATCC 27853, Staphylococcus aureus ATCC 29213, Enterococcus faecalis ATCC 29212, and fungi culture, Candida albicans ATCC 10231) was assessed in triplicate using the serial dilution microplate method; acetone and DMSO were used as solvents. Bacterial cultures were grown in Mueller Hinton broth (Sigma Aldrich, St. Louis, MO, USA) overnight and adjusted to McFarland standard 1 (1 × 10^8 CFU/mL). Then, 100 µL of samples were transferred into the first well of a sterile 96-well microtiter plate, which contained 100 µL of water and a 1:1 serial dilution with sterilized distilled water was carried out. In each well, 100 µL of appropriately adjusted fungal or bacterial cultures were added, and the bacteria were subjected to final concentrations of 250–3.9 μg/mL for pure compounds and 2.5–0.02 mg/mL for crude extracts. Amphotericin-B and Gentamicin (Virbac, Carros, France) served as positive controls for fungi and bacteria, respectively. For sterility, water served as control, while acetone served as a negative control. The microplates were then incubated for 24 h at 37 °C. Following incubation, 40 µL of 0.2 mg/mL p-iodonitrotetrazolium violet (INT, Sigma Aldrich) dissolved in water (hot) was added to the wells before being incubated at 37 °C for another 2 h. In the case of fungi, the INT was added before incubation. The MIC was measured visually as the lowest concentration of the compounds/extracts that inhibited proliferation.

[2] = system: Enterococcus faecalis ATCC 29212; experiment: Serial dilution microplate MIC; format: cell-based; settings: for MIC: Enterococcus faecalis; for Selectivity index E. faecalis: in brackets, Vero LC50 vs MIC
Experimental: as §1

[3] = system: Escherichia coli ATCC 25922; experiment: Serial dilution microplate MIC; format: cell-based; settings: for MIC: Escherichia coli; for Selectivity index E. coli: in brackets, Vero LC50 vs MIC
Experimental: as §1

[4] = system: Pseudomonas aeruginosa ATCC 27853; experiment: Serial dilution microplate MIC; format: cell-based; settings: for MIC: Pseudomonas aeruginosa; for Selectivity index P. aeruginosa: in brackets, Vero LC50 vs MIC
Experimental: as §1

[5] = system: Salmonella Typhimurium ATCC 39183; experiment: Serial dilution microplate MIC; format: cell-based; settings: for MIC: Salmonella enterica, read-out: Minimum inhibitory concentration (MIC) S. Typhimurium; for Selectivity index S. Typhimurium: in brackets, Vero LC50 vs MIC
Experimental: as §1

[6] = system: Staphylococcus aureus ATCC 29213; experiment: Serial dilution microplate MIC; format: cell-based; settings: for MIC: Staphylococcus aureus; for Selectivity index S. aureus: in brackets, Vero LC50 vs MIC
Experimental: as §1

[7] = system: intra-erythrocytic and gametocyte asexual P. falciparum parasites; parameters: method as in PMID 30849984; settings: intra-erythrocytic and gametocyte stages; cited from earlier work
in vitro = experiment: in vitro
Experimental: Cytotoxicity of compounds and extracts was tested against mammalian cells using the MTT assay. MCF-7 cancer cells were grown in a 5% CO2 incubator in Dulbecco’s Modified Eagle’s Medium (DMEM, Highveld Biological, Johannesburg, South Africa) supplemented with 10% fetal calf serum (Adcock-Ingram, Johannesburg, South Africa) and 1% penicillin-streptomycin (10,000 U/mL and 10 mg/mL streptomycin, Sigma Aldrich). In a 5% CO2 incubator, Vero cells were grown in a minimal essential medium (MEM, Highveld Biological, South Africa) supplemented with 5% fetal calf serum (Adcock-Ingram) and 0.1% gentamicin (Virbac). Cell suspensions were obtained from 70–80% confluent monolayer cultures and were plated in 96-well cell culture plates at a density of 1 × 10^4. Plates were incubated in a 5% CO2 incubator for 24 h at 37 °C. The cells were exposed to the extracts or compounds dissolved in the media at different concentrations for 48 h. Positive and negative controls were doxorubicin (Pfizer, New York, NYC, USA) and acetone or DMSO, respectively. After that, the wells were rinsed with phosphate-buffered saline (PBS, Sigma) and 200 µL of fresh medium was poured into the wells. Thirty microlitres (5 mg/mL) of MTT (Sigma) dissolved in PBS was added to each well, and the plates were incubated at 37 °C for 4 h. The medium from the wells was removed, rinsed, and 50 µL of 100% DMSO was added to the wells. At a wavelength of 570 nm, absorbance was measured using a microplate reader (BioTek Synergy, Beijing, China). Each sample concentration was tested in quadruplicate in two repeats (n = 8), and the concentration causing 50% inhibition of cell viability (LC50) was calculated. Selectivity index (SI) values for the extracts/compounds were obtained by dividing cytotoxicity LC50 values of normal (Vero) cells by those of the cancer cells.

[8] = system: one fungal and five bacterial strains; experiment: Serial dilution microplate MIC, whole panel; format: cell-based; settings: isolated compounds, highest concentration 250 µg/mL
Experimental: as §1

E. coli = system: E. coli; parameters: method as in PMID 23480526; settings: cited from earlier work
P. aeruginosa = system: P. aeruginosa; parameters: method as in PMID 23480526; settings: cited from earlier work
S. aureus = system: S. aureus; parameters: method as in PMID 23480526; settings: cited from earlier work
L. monocytogenes = system: L. monocytogenes; parameters: method as in PMID 23480526; settings: cited from earlier work
COX-1 = system: COX-1; parameters: method as in doi:10.3329/bjp.v8i2.14167; settings: cited from earlier work
COX-2 = system: COX-2; parameters: method as in doi:10.3329/bjp.v8i2.14167; settings: cited from earlier work
[9] = parameters: method as in PMID 22693528; settings: cited from earlier work
[10] = system: Botrytis cinerea and Sclerotinia sclerotiorum; parameters: method as in PMID 37570772; settings: cited from earlier work
[11] = system: Leishmania braziliensis amastigotes; parameters: method as in PMID 32664596; settings: cited from earlier work
Plasmodium falciparum = system: Plasmodium falciparum; parameters: method as in PMID 32664596; settings: cited from earlier work
HEK295 = system: HEK295; parameters: method as in PMID 27357542; settings: cited from earlier work
MCF-7 tumor cells = system: MCF-7 tumor cells; parameters: method as in PMID 27357542; settings: 1 µg/mL; cited from earlier work
Caco-2 tumor cells = system: Caco-2 tumor cells; parameters: method as in PMID 27357542; settings: 5 μg/mL; cited from earlier work
[12] = ATCC10231, isolated compounds, Table 2, read-out: Minimum inhibitory concentration (MIC) C. albicans
[13] = ATCC29212, isolated compounds, Table 2, read-out: Minimum inhibitory concentration (MIC) E. faecalis
[14] = ATCC25922, isolated compounds, Table 2, read-out: Minimum inhibitory concentration (MIC) E. coli
[15] = ATCC27853, isolated compounds, Table 2, read-out: Minimum inhibitory concentration (MIC) P. aeruginosa
[16] = ATCC29213, isolated compounds, Table 2, read-out: Minimum inhibitory concentration (MIC) S. aureus

C[C@@H]1[C@H](O)[C@@H](C)/C=C/C=C/C=C/C=C/C=C/C=C/C=C/[C@H](O[C@@H]2O[C@H](C)[C@@H](O)[C@H](N)[C@@H]2O)C[C@@H]2O[C@](O)(C[C@@H](O)C[C@@H](O)[C@H](O)CC[C@@H](O)C[C@@H](O)CC(=O)O[C@H]1C)C[C@H](O)[C@H]2C(=O)O [Amphotericin-B, reference compound]
MIC ([1]; ATCC10231, crude extracts, Table 1, read-out: Minimum inhibitory concentration (MIC) C. albicans): 20 µg/mL (≈ 21.6 µM)
MIC [1, 12]: 3.9 µg/mL (≈ 4.22 µM)

CNC(C)C1CCC(N)C(OC2C(N)CC(N)C(OC3OCC(C)(O)C(NC)C3O)C2O)O1 (stereo not shown) [Gentamicin, reference compound]
MIC ([2]; ATCC29212, crude extracts, Table 1, read-out: Minimum inhibitory concentration (MIC) E. faecalis): 20 µg/mL (≈ 41.9 µM)
MIC [2, 13]: 3.9 µg/mL (≈ 8.17 µM)
MIC ([3]; ATCC25922, crude extracts, Table 1, read-out: Minimum inhibitory concentration (MIC) E. coli): 20 µg/mL (≈ 41.9 µM)
MIC [3, 14]: 3.9 µg/mL (≈ 8.17 µM)
MIC ([4]; ATCC27853, crude extracts, Table 1, read-out: Minimum inhibitory concentration (MIC) P. aeruginosa): 20 µg/mL (≈ 41.9 µM)
MIC [4, 15]: 3.9 µg/mL (≈ 8.17 µM)
MIC ([5]; crude extracts, Table 1): 20 µg/mL (≈ 41.9 µM)
MIC ([5]; isolated compounds, Table 2): 3.9 µg/mL (≈ 8.17 µM)
MIC ([6]; ATCC29213, crude extracts, Table 1, read-out: Minimum inhibitory concentration (MIC) S. aureus): 20 µg/mL (≈ 41.9 µM)
MIC [6, 16]: 3.9 µg/mL (≈ 8.17 µM)

C=C1C(=O)O[C@H]2[C@H]1[C@@H](OC(C)=O)C[C@@](C)(O)[C@@]13O[C@@H]1[C@@H]1O[C@]1(C)[C@H]23 [Yomogiartemin]
IC50 [7]: ~10 µM

COc1cc(/C=C/C(=O)O)ccc1O [Ferulic acid, ferulic acid]
MIC [2, 13]: > 250 µg/mL
Selectivity index E. faecalis ([2]; Table 2): < 0.8
MIC [3, 14]: > 250 µg/mL
Selectivity index E. coli ([3]; Table 2): < 0.8
MIC [4, 15]: > 250 µg/mL
Selectivity index P. aeruginosa ([4]; Table 2): < 0.8
MIC ([5]; isolated compounds, Table 2): > 250 µg/mL
Selectivity index S. Typhimurium ([5]; Table 2): < 0.8
MIC [6, 16]: 250 µg/mL (≈ 1290 µM)
Selectivity index S. aureus ([6]; Table 2): > 0.8
MIC [1, 12]: 250 µg/mL (≈ 1290 µM)
Selectivity index C. albicans ([1]; Table 2): > 0.8
CC50 at 48 h (in vitro): > 200 µg/mL
MIC ([8]; all tested strains, read-out: MIC against all tested microorganisms): ≥ 250 µg/mL
MIC against all tested microorganisms [8]: no efficacy
MIC E. coli (E. coli): 100 µg/mL (≈ 515 µM)
MIC P. aeruginosa (P. aeruginosa): 100 µg/mL (≈ 515 µM)
MIC S. aureus (S. aureus): 1100 µg/mL (≈ 5660 µM)
MIC L. monocytogenes (L. monocytogenes): 1250 µg/mL (≈ 6440 µM)

CC(=O)O[C@H]1CC[C@]2(C)[C@H]3CC[C@]4(C)C(=CC[C@@]5(C)CCC(C)(C)C[C@H]54)[C@]3(C)CC[C@H]2C1(C)C [3β-Taraxerol acetate, 3β-taraxerol acetate]
IC50 (COX-1): 116 µM
IC50 (COX-2): 94.7 µM

O=C1O[C@H]([C@@H](O)CO)C(O)=C1O [vitamin C, reference compound]
IC50 DPPH radical [9]: 1.22 µg/mL (≈ 6.93 µM)

CCCCCCCCCCCCOC(=O)/C=C/c1ccc(O)cc1 [Dodecyl-p-coumarate, dodecyl-p-coumarate]
MIC ([2]; ATCC29212, read-out: Minimum inhibitory concentration (MIC) E. faecalis): 62.5 µg/mL (≈ 188 µM)
Selectivity index E. faecalis ([2]; Table 2): > 3.2
MIC ([3]; ATCC25922, read-out: Minimum inhibitory concentration (MIC) E. coli): > 250 µg/mL
Selectivity index E. coli ([3]; Table 2): < 0.8
MIC ([4]; ATCC27853, read-out: Minimum inhibitory concentration (MIC) P. aeruginosa): > 250 µg/mL
Selectivity index P. aeruginosa ([4]; Table 2): < 0.8
MIC ([5]; isolated compounds, Table 2): > 250 µg/mL
Selectivity index S. Typhimurium ([5]; Table 2): < 0.8
MIC ([6]; ATCC29213, read-out: Minimum inhibitory concentration (MIC) S. aureus): > 250 µg/mL
Selectivity index S. aureus ([6]; Table 2): < 0.8
MIC ([1]; ATCC10231, read-out: Minimum inhibitory concentration (MIC) C. albicans): 250 µg/mL (≈ 752 µM)
Selectivity index C. albicans ([1]; Table 2): > 0.8
CC50 at 48 h (in vitro): > 200 µg/mL
Mycelium growth of Botrytis cinerea and Sclerotinia sclerotiorum [10]: inhibition of mycelium growth
EC50 Leishmania braziliensis amastigotes [11]: 16.34 ± 0.49 µg/mL (≈ 49.1 µM)
EC50 Plasmodium falciparum (Plasmodium falciparum): 81.19 ± 8.54 µg/mL (≈ 244 µM)
Toxic effect on HEK295 (HEK295): minimal toxic effect
Reduction of viability of MCF-7 tumor cells (MCF-7 tumor cells): at least 23%
Reduction of viability of Caco-2 tumor cells (Caco-2 tumor cells): ≥ 15%

C=C1C(=O)O[C@H]2C1[C@@H](OC(C)=O)CC(=C)[C@]1(O)C=C[C@@](C)(O)[C@H]21 (stereo partly drawn) [1α, 4α-dihydroxybishopsolicepolide]
IC50 [7]: ~10 µM

Source: article PMC10574767, “Extractives from Artemisia afra with Anti-Bacterial and Anti-Fungal Properties” (Plants, 2023)
